Data: PubChem BioAssay (NCI)
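The compound was tested at five concentrations on cells cultured in 96-well plates, with a 48-hour exposure period. TGI is the concentration that stops growth completely.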

Key:
Experiment in all cases: NCI tumour cell line growth inhibition, 48 h
A498 renal = system: A498 renal
MCF7 breast = system: MCF7 breast
MDA-N = system: MDA-N
NCI-H23 lung = system: NCI-H23 lung
NCI-H522 lung = system: NCI-H522 lung
OVCAR-8 ovarian = system: OVCAR-8 ovarian
PC-3 prostate = system: PC-3 prostate
SF-268 CNS = system: SF-268 CNS
SF-295 CNS = system: SF-295 CNS
SF-539 CNS = system: SF-539 CNS
SK-MEL-5 melanoma = system: SK-MEL-5 melanoma
SN12C renal = system: SN12C renal
T-47D breast = system: T-47D breast
U251 CNS = system: U251 CNS
UACC-257 melanoma = system: UACC-257 melanoma
UO-31 renal = system: UO-31 renal

SMILES | TGI (A498 renal) [µM] | TGI (MCF7 breast) [µM] | TGI (MDA-N) [µM] | TGI (NCI-H23 lung) [µM] | TGI (NCI-H522 lung) [µM] | TGI (OVCAR-8 ovarian) [µM] | TGI (PC-3 prostate) [µM] | TGI (SF-268 CNS) [µM] | TGI (SF-295 CNS) [µM] | TGI (SF-539 CNS) [µM] | TGI (SK-MEL-5 melanoma) [µM] | TGI (SN12C renal) [µM] | TGI (T-47D breast) [µM] | TGI (U251 CNS) [µM] | TGI (UACC-257 melanoma) [µM] | TGI (UO-31 renal) [µM]
COc1cc(C2SCC(=O)N2c2ccc(Cl)cc2)cc(OC)c1OC (centres undefined) | > 100 | > 100 | 20.9 | > 100 | > 100 | > 100 | > 100 | > 100 | > 100 | > 100 | > 100 | > 100 | > 24.2 | > 100 | > 100 | > 100
CC(C)C1CCC(=O)CC1CCCCC1CC(=O)CC1O[Si](C)(C)C(C)(C)C (centres undefined) | 27.1 | 27.2 | 21.1 | 33.7 | 4.02 | 13 | 43.1 | 7.74 | 25.5 | 24.8 | 12.6 | 22.3 | 46.9 | 5.84 | 21.7 | 20.2
CCOC(=O)c1c(Br)c(-c2ccc([N+](=O)[O-])cc2)c(Br)n1C | > 10 | > 10 | > 10 | > 10 | > 10 | > 10 | > 10 | > 10 | > 10 | > 10 | > 10 | > 10 | > 10 | > 10 | > 10 | > 10
CCOC(=O)C(CCSC)(CCSC)C(=O)OCC | > 100 | > 100 | > 100 | > 100 | > 100 | > 100 | > 100 | > 100 | > 100 | > 100 | > 100 | > 100 | > 100 | > 100 | > 100 | > 100
Cc1ccc(C(CCO)CCO)nc1 | > 100 | > 100 | > 100 | > 100 | > 100 | > 100 | > 100 | > 100 | > 100 | > 100 | > 100 | > 100 | > 100 | > 100 | > 100 | > 100
CC(=O)OC1CC2C(=O)CC1(C)C2(C)C (centres undefined) | > 100 | > 100 | > 100 | > 100 | > 100 | > 100 | > 100 | > 100 | > 100 | > 100 | > 100 | > 100 | > 100 | > 100 | > 100 | > 100
CC(=O)O[C@H]1C(=O)[C@@]2(C)[C@H]([C@H](OC(=O)c3ccccc3)[C@]3(O)C[C@H](OC(=O)[C@H](O)[C@@H](NC(=O)OC(C)(C)C)c4ccco4)C(C)=C1C3(C)C)[C@]1(OC(C)=O)CO[C@@H]1C[C@@H]2O | 22.7 | 0.247 | 0.0325 | > 40.9 | 0.00875 | > 50 | > 50 | > 50 | < 0.005 | 0.0138 | 19 | 36.3 | > 50 | > 16.1 | > 47.2 | > 34.9
CC(C)NC(=O)OCc1c(COC(=O)NC(C)C)c(-c2cc[n+](COC(=O)Cc3ccccc3)cc2)n2c1CCC2 | > 100 | > 100 | > 100 | > 100 | > 100 | > 100 | > 100 | > 100 | > 100 | > 100 | > 100 | > 100 | > 100 | > 100 | > 100 | > 100
COc1ccc2nc3c([N+](=O)[O-])ccc4c3c(c2c1)N=CN4CCN(C)C | 15.4 | 14.2 | 16.9 | 21.1 | 9.68 | 19.3 | 35.4 | 19.6 | 21.7 | 15.8 | 7.81 | 12.5 | 22.4 | 24.5 | 16.1 | 11.6
O=C(NCCCN1CCN(CCCNC(=O)c2cc(-c3ccccc3)nc3ccccc23)CC1)c1cc(-c2ccccc2)nc2ccccc12 | 73.6 | 53.5 | 20.4 | > 100 | 32 | 29.7 | 26 | > 60.2 | 31.6 | 41.5 | 3.98 | 43 | 33.9 | 30.7 | 5.45 | > 42.2
CCOC(=O)C12CCC(c3c(C)cccc3C)(O1)C(C(=O)OC)=C2C(=O)OC (centres undefined) | 7 | > 10 | 1.98 | > 8.69 | > 10 | > 10 | > 10 | > 10 | > 10 | 4.76 | 5.37 | > 10 | > 10 | > 10 | 8.15 | > 10
Cc1cc(S(=O)(=O)Nc2nnc3c(Cl)cc(C(F)(F)F)cn23)c(S)cc1Cl | > 100 | > 100 | > 100 | > 100 | > 100 | > 100 | > 100 | > 100 | > 100 | > 100 | > 80.6 | > 100 | > 100 | > 100 | > 100 | > 100
C[C@@]12C[C@@H](c3ccccc3O1)N1CCCSC1=N2 | > 100 | > 100 | > 100 | > 100 | > 100 | > 100 | > 100 | > 100 | > 100 | > 100 | > 100 | > 100 | > 100 | > 100 | > 100 | > 100
COc1ccc(C(SCCO)(c2ccc(OC)cc2)c2ccc(OC)cc2)cc1 | 40.1 | 31.6 | 18.1 | 45.2 | 28.2 | 37.7 | 42.3 | 43.9 | 39.2 | 30.6 | 24.6 | 33.9 | 33.7 | 32.6 | 32.5 | 34.4
